# US4959362A, “Pharmaceutical compositions containing certain ascorbic acid derivatives useful in the prophylaxis and treatment of disorders of the circulatory system” (Takeda Chemical Industries, Inc., priority 1983, dated 1990)
# How the values were obtained:
# [1] = tested on: lipid peroxide formation in rat brain tissue homogenate; test: Inhibition of lipid peroxide formation in rat brain tissue homogenate (TBA method); type: biochemical, rat (male SD); conditions: 10^-5 M; for Inhibitory Effect (%) on lipid peroxide formation: n = 3, mean ± standard error, 37° C., 1 hour
# Protocol: Activity to inhibit lipid peroxide formation in rat brain tissue homogenate:
# Male SD rats (12-weeks old) were subjected to exsanguination under anesthesia with pentobarbital, then the brain was excised. The brain tissue was homogenized in a phosphate buffer solution (pH 7.4) to prepare a 5% homogenate. After incubation of the homogenate at 37° C. for 1 hour, the amount of lipid peroxides formed therein was determined by thiobarbituric acid (TBA) method in accordance with the report of Ohkawa et al. on Analytical Biochemistry 95 351, 1979.
# The test drug was added to the 5% homogenate before incubation so as to make the final concentration be 10^-5 M. The activity to inhibit the formation of lipid peroxides was compared with that of the reference group to which was added the solvent (DMSO), and shown by % inhibition.
# [2] = Oxidation inhibitory activity: reduction of a stable free radical (DPPH); type: biochemical; conditions: for DPPH reducing activity compared with the test drug: FIG. 1
# Protocol: Oxidation inhibitory activity determined with the use of a stable radical: In accordance with the method of M. S. Brois [Nature, 181, 1199, 1958], the activity to reduce a stable free radical, α,α-diphenyl-β-picryl hydrazyl (DPPH), was determined, which was used as an index of the oxidation inhibitory activity. […] Then, 20 minutes later, the absorbance at a wavelength of 517 nm was measured with the use of a spectrophotometer.
# [3] = tested on: renal disorders due to Fe^3+ -nitrilotriacetate (NTA); test: Effects on renal disorders in rats due to Fe^3+ nitrilotriacetate (NTA); type: in vivo, rat (male SLC-Wistar); conditions: 30 mg/kg orally; for Body Weight / Kidney Weight / Occult Blood Test (positive animals/animals) / Protein in urine / Volume of urine: n = 6, last day of the experiment
# Protocol: Effects to alleviate renal disorders in rats due to Fe^3+ nitrilotriacetate:
# Male SLC-Wistar rats (4-weeks old, 64~85 g) were used. The animals were housed individually in metabolism cages and allowed free access to feed and water. Body weight, volume of urine and protein in urine (BIO-RAD method) were determined every day, and occult blood reaction was also examined (Labstick method). On the last day of the experiment, the kidney was excised and weighed.
# The animals were orally administered once daily with test drugs or vehicles thereof (suspension in gum arabic), and, 40~60 minutes later, were injected intraperitoneally with nitrilotriacetate (NTA) or Fe^3+ -NTA. Fe^3+ -NTA was used in a form of mixture (1:4, molar ratio), and the dosages were 5 mg/kg in terms of Fe^3+ for 3 days and successively 10 mg/kg for 5 days.
# Test drugs were compound (1-12), vitamin C and vitamin E, and the dosages were all 30 mg/kg.
# [4] = tested on: ventricular arrhythmias after coronary artery occlusion-reperfusion in rat hearts; test: Inhibition of ventricular arrhythmias during coronary artery occlusion-reperfusion in rat hearts; type: in vivo, rat (male SD); conditions: for Extrasystole / Mortality (animals) / Mortality (percentage) / Ventricular fibrillation Incidence (animals) / Ventricular fibrillation Incidence (percentage) / Ventricular tachycardia Incidence (animals) / Ventricular tachycardia Incidence (percentage) / Ventricular fibrillation Duration / Ventricular tachycardia Duration / occurrence of ventricular arrhythmias: oral; for Ventricular fibrillation Duration / Ventricular tachycardia Duration: average ±SEM; for occurrence of ventricular arrhythmias: 20 and 50 mg/kg of compound (1-12), 50 mg/kg of vitamin C or E
# Protocol: Action to inhibit ventricular arrhythmias occurred during coronary artery occlusion-reperfusion in rat hearts
# Male SD rats (9~13 - weeks old, 250~370 g) were used. The animals were subjected to thoractonomy under artificial respiration while anesthesia was maintained by administering pentobarbital. […] By recording standard limb lead II electrocardiograms, occurrence of ventricular arrhythmias was examined.
# The animals were administered, under non-anesthesia, with test drugs as a gum arabic suspension at the dosage of 30 mg/kg at the time of about 90 minutes and of 20 mg/kg at the time of about 45 minutes (total: 50 mg/kg), or at the dosage of 10 mg/kg each (total: 20 mg/kg) at the time of about 90 minutes and about 45 minutes prior to closure of the coronary artery. The results are shown in Table 4 in terms of the total amount of the dosage.
# Incidences of ventricular fibrillation and ventricular tachycardia are shown by the percentage of the number of animals presenting the symptoms relative to the number of animals subjected to the test, and the duration of the symptoms was shown in average ±SEM by seconds. Extrasystole is shown by the number of systole/min, and the mortality is shown by the percentage of the number of animals killed relative to the number of animals subjected to the test.
# [5] = tested on: ischemic convulsive seizure (bilateral common carotid artery ligation); test: Inhibition of ischemic seizure due to ligation of bilateral common carotid arteries in SHR rats; type: in vivo, rat (male SHR)
# Protocol: Inhibition of ischemic seizure due to ligation of bilateral common carotid arteries in SHR rats
# Male SHR rats (22-weeks old, about 360 g) were used. Under light anesthesia with ether, the animals were subjected to midline incision at the neck and the bilateral common carotid arteries were singled, then ligated to cause cerebral ischemia. […] The animals were orally administered with test drugs as a gum arabic suspension 60 minutes before the ligation of the bilateral common carotid arteries.
# mice = test: Acute toxicity in mice; type: in vivo; conditions: 300 and 1000 mg/kg orally
# Protocol: Male Crj-ICR mice (4-weeks old, 21~26 g) were used. The animals, divided into groups, each consisting of six mice, were administered orally with compound (1-12) at the dosage of 300 or 1000 mg/kg. Then, each group was housed in a cage, and observed for 24 hours. The test drugs were suspended in gum arabic, and administered at the volume of 0.1 ml/10 g.
# [6] = 100 mg/kg p.o., within 180 minutes
compound,measurement,setting,value
CCCCCCCCOC1=C(O)[C@@H]([C@@H](O)CO)OC1=O [Compound (1-2)],Inhibitory Effect (%) on lipid peroxide formation,[1],-6.6 ± 3.0%
CCCCCCCCCCOC1=C(O)[C@@H]([C@@H](O)CO)OC1=O [Compound (1-4)],Inhibitory Effect (%) on lipid peroxide formation,[1],40.0 ± 1.1%
"CCCCCCCCCCCCOC1=C(O)[C@@H]([C@@H](O)CO)OC1=O [Compound (1-6), 2-O-Dodecyl-L-ascorbic acid]",Inhibitory Effect (%) on lipid peroxide formation,[1],55.7 ± 26.5%
CCCCCCCCCCCCCCOC1=C(O)[C@@H]([C@@H](O)CO)OC1=O [Compound (1-8)],Inhibitory Effect (%) on lipid peroxide formation,[1],93.1 ± 5.3%
"CCCCCCCCCCCCCCCOC1=C(O)[C@@H]([C@@H](O)CO)OC1=O [Compound (1-9), 2-O-pentadecyl-L-ascorbic acid]",Inhibitory Effect (%) on lipid peroxide formation,[1],100.0 ± 0%
"CCCCCCCCCCCCCCCCOC1=C(O)[C@@H]([C@@H](O)CO)OC1=O [Compound (1-10), 2-O-hexadecyl-L-ascorbic acid]",Inhibitory Effect (%) on lipid peroxide formation,[1],78.5 ± 11.7%
"CCCCCCCCCCCCCCCCCCOC1=C(O)[C@@H]([C@@H](O)CO)OC1=O [Compound (1-12), 2-O-octadecylascorbic acid]",concentration at which DPPH is reduced in a manner dependent upon the amount used,"[2]; 20 minutes, 0.1 mM DPPH ethanol solution, 517 nm",not less than 10^-5 M
same,Activity on lipid peroxide formation,[1],higher activity
same,Inhibitory Effect (%) on lipid peroxide formation,[1],88.6 ± 6.8%
same,Effect on renal disorders,[3],renal disorders were alleviated
same,occult blood detection,[3],"only in half of the test animals, occult blood was detected"
same,urine volume and urinary protein compared with vehicle,[3],significatly less
same,weight of kidney compared with vehicle,[3],significantly less
same,Body Weight,[3],95.5 ± 3.0 g
same,Kidney Weight,[3],56.5 ± 2.0 mg
same,Occult Blood Test (positive animals/animals),[3],3/6
same,Protein in urine,[3],8.1 ± 2.1 mg/day
same,Volume of urine,[3],7.4 ± 1.3 mL/day
same,Extrasystole,[4]; 20 mg/kg total,3.3 ± 0.8 systole/min
same,Mortality (animals),[4]; 20 mg/kg total,1/17
same,Mortality (percentage),[4]; 20 mg/kg total,6 percentage
same,Ventricular fibrillation Incidence (animals),[4]; 20 mg/kg total,9/17
same,Ventricular fibrillation Incidence (percentage),[4]; 20 mg/kg total,53 percentage
same,Ventricular tachycardia Incidence (animals),[4]; 20 mg/kg total,11/17
same,Ventricular tachycardia Incidence (percentage),[4]; 20 mg/kg total,65 percentage
same,Ventricular fibrillation Duration,[4]; 20 mg/kg total,31.0 ± 28.2 s
same,Ventricular tachycardia Duration,[4]; 20 mg/kg total,10.2 ± 3.2 s
same,Extrasystole,[4]; 50 mg/kg total,1.1 ± 0.3 systole/min
same,Mortality (animals),[4]; 50 mg/kg total,0/9
same,Mortality (percentage),[4]; 50 mg/kg total,0 percentage
same,Ventricular fibrillation Incidence (animals),[4]; 50 mg/kg total,2/9
same,Ventricular fibrillation Incidence (percentage),[4]; 50 mg/kg total,22 percentage
same,Ventricular tachycardia Incidence (animals),[4]; 50 mg/kg total,2/9
same,Ventricular tachycardia Incidence (percentage),[4]; 50 mg/kg total,22 percentage
same,Ventricular fibrillation Duration,[4]; 50 mg/kg total,1.2 ± 0.8 s
same,Ventricular tachycardia Duration,[4]; 50 mg/kg total,3.2 ± 2.6 s
same,frequency of occasional PVCs,[4]; 20 and 50 mg/kg,less significantly
same,mortality due to VF,[4]; 20 and 50 mg/kg,low
same,period of time during which the symptom lasted,[4]; 20 and 50 mg/kg,shortened
same,occurrence of ventricular arrhythmias,[4],suppressed significantly and depending on the dosages
same,delay of appearance of the convulsion,"[5]; 100 mg/kg orally, versus vehicle",about 40 minutes
same,Ischemic convulsive seizure Time,"[5]; 100 mg/kg p.o., n = 5",199 min
same,Ischemic convulsive seizure Incidence (%),[5]; [6],20%
same,Ischemic convulsive seizure Incidence (animals),[5]; [6],1/5
same,recovery from sedation and ptosis,mice,≤ 3 h
same,state observed,mice,the state of sedation and ptosis were observed
same,lethality,mice; 24-hour-observation,no test animals of either group were killed
CCCCCCCCCCCCCCCCCCCCOC1=C(O)[C@@H]([C@@H](O)CO)OC1=O [Compound (1-13)],Inhibitory Effect (%) on lipid peroxide formation,[1],95.4 ± 4.6%
CCCCCCCCCCCCCCCCCCCCCCOC1=C(O)[C@@H]([C@@H](O)CO)OC1=O [Compound (1-14)],Inhibitory Effect (%) on lipid peroxide formation,[1],38.1 ± 16.6%
"O=C1O[C@H]([C@@H](O)CO)C(O)=C1O [Vitamin C, ascorbic acid]",DPPH reducing activity compared with the test drug,[2],activity equal to that of the test drug
same,Activity on lipid peroxide formation,[1],promoted the formation of lipid peroxides remarkably
same,Inhibitory Effect (%) on lipid peroxide formation,[1],-71.6 ± 36.8%
same,Effect on renal disorders,[3],did not show significant effect for alleviating renal disorders
same,Body Weight,[3],89.2 ± 4.1 g
same,Kidney Weight,[3],64.5 ± 1.7 mg
same,Occult Blood Test (positive animals/animals),[3],5/6
same,Protein in urine,[3],10.7 ± 2.4 mg/day
same,Volume of urine,[3],10.3 ± 1.7 mL/day
same,Extrasystole,[4]; 50 mg/kg total,5.1 ± 1.0 systole/min
same,Mortality (animals),[4]; 50 mg/kg total,0/6
same,Mortality (percentage),[4]; 50 mg/kg total,0 percentage
same,Ventricular fibrillation Incidence (animals),[4]; 50 mg/kg total,6/6
same,Ventricular fibrillation Incidence (percentage),[4]; 50 mg/kg total,100 percentage
same,Ventricular tachycardia Incidence (animals),[4]; 50 mg/kg total,6/6
same,Ventricular tachycardia Incidence (percentage),[4]; 50 mg/kg total,100 percentage
same,Ventricular fibrillation Duration,[4]; 50 mg/kg total,9.7 ± 2.5 s
same,Ventricular tachycardia Duration,[4]; 50 mg/kg total,19.0 ± 3.0 s
same,occurrence of ventricular arrhythmias,[4],no significant effects
CCCCCCCCCCCCCCCCCCOC1=C(O)C(=O)O[C@@H]1[C@@H](O)CO [reference compound],Inhibitory Effect (%) on lipid peroxide formation,[1],45.4 ± 8.7%
Vitamin E [reference compound],DPPH reducing activity compared with the test drug,[2],activity equal to that of the test drug
same,Inhibitory Effect (%) on lipid peroxide formation,[1],44.9 ± 11.7%
same,Effect on renal disorders,[3],substantially the same effects
same,occult blood detection,[3],"in more than half of the test animals, occult blood test was positive"
same,Body Weight,[3],99.3 ± 2.3 g
same,Kidney Weight,[3],54.3 ± 2.7 mg
same,Occult Blood Test (positive animals/animals),[3],4/6
same,Protein in urine,[3],6.3 ± 1.4 mg/day
same,Volume of urine,[3],9.0 ± 1.0 mL/day
same,Extrasystole,[4]; 50 mg/kg total,7.0 ± 4.1 systole/min
same,Mortality (animals),[4]; 50 mg/kg total,1/10
same,Mortality (percentage),[4]; 50 mg/kg total,10 percentage
same,Ventricular fibrillation Incidence (animals),[4]; 50 mg/kg total,6/10
same,Ventricular fibrillation Incidence (percentage),[4]; 50 mg/kg total,60 percentage
same,Ventricular tachycardia Incidence (animals),[4]; 50 mg/kg total,7/10
same,Ventricular tachycardia Incidence (percentage),[4]; 50 mg/kg total,70 percentage
same,Ventricular fibrillation Duration,[4]; 50 mg/kg total,43.4 ± 36.0 s
same,Ventricular tachycardia Duration,[4]; 50 mg/kg total,22.3 ± 9.7 s
same,occurrence of ventricular arrhythmias,[4],no significant effects
